These results are taken from US9358228B2, “Therapeutic combinations of netupitant and palonosetron” (Helsinn Healthcare SA, priority 2011, dated 2016).

Common to all, as to type: in vivo, rat
Experiment [1] has as its system acetic acid (AA)-induced somatic hypersensitivity in a rodent model. As to the kind of experiment: Somatic sensitivity assessment: von Frey hind paw withdrawal after intracolonic acetic acid. Particulars: rats; for inhibition of AA-induced somatic hypersensitivity, agent alone: oral, effective dose not given (0.001-1 mg/kg dosed); for effect of 0.001 mg/kg dose alone on somatic hypersensitivity: 0.001 mg/kg oral, agent alone. How it is done:
Induction of Acute Visceral and Somatic Hypersensitivity: Visceral and somatic hypersensitivity were induced by infusing dilute (1.5 ml at 0.6%) acetic acid (AA) into the rat colon via a catheter (Intramedic PE 90 tubing) inserted via the anus to the level of the mid-colon. Within 60 mins colonic and somatic hypersensitivity was evident. Somatic Sensitivity Assessment: Von Frey filaments were used to determine the level of somatic sensitivity in all animals receiving intracolonic infusion of AA. The Von Frey instrument measures the level of somatic sensitivity by recording the minimal force required to elicit hind paw withdrawal. The animals were placed in a mesh-bottomed Von Frey caging apparatus and a nylon filament was steadily pushed against the rat's foot pad until withdrawal of the hind paw. The force in grams which elicited hind paw withdrawal was then recorded. Test Compounds: Following surgery, rats were pre-dosed with Palonosetron (1-hr pre-dose), Netupitant (2-hr pre-dose) or methyl cellulose vehicle. Palonosetron and Netupitant were supplied by […] Healthcare Inc. and were stored at 4° C. until prepared for dosing as a suspension in 1% methyl cellulose solution. The drug suspensions were prepared so that each rat received an oral dosing volume of 0.5 ml per 100 g body weight for doses of 0.001, 0.01, 0.1 or 1 mg/kg. Compounds were prepared fresh on the day of use. Statistical Analysis: To determine statistical significance between multiple control and treatment groups, data was compared using one-way ANOVA followed by a Bonferroni post-test. Results were deemed significant when p-values were less than 0.05.

Experiment [2] has as its system spinal dorsal horn neurones in SNL rats. As to the kind of experiment: Electrophysiology: electrically-evoked dorsal horn neural responses. To be noted: for AB-Fiber Response, Number of Action Potentials / AD-Fiber Response, Number of Action Potentials / C-Fiber Response, Number of Action Potentials / Input Response, Number of Action Potentials / Post Discharge Response, Number of Action Potentials / Wind-up Response, Number of Action Potentials: SNL rats, mean ± S.E. On the procedure:
Electrophysiology experiments were conducted on post-operative days 14-17 in anaesthetised rats.
We recorded the evoked responses of dorsal horn lamina V-VI neurones to stimulation of the peripheral receptive field with: • a train of 16 electrical pulses at 3×C-fibre threshold • mechanical von Frey filaments of increasing force—vf 2 g, 8 g, 26 g and 60 g applied to the centre of the receptive field for 10 seconds • heat—40, 45 and 48° C. applied to the centre of the receptive field by a constant water jet for 10 seconds
Following 3 stable baseline responses, 0.03 mg/kg Palonosetron and 0.10 mg/kg Netupitant were administered into the scruff of the neck by subcutaneous injection. Drug effects were followed for two hours with tests carried out at 10, 30, 50, 70, 90 and 110 minutes post injection.
Input represents the post-synaptic C-fibre-evoked dorsal horn neuronal response following the first of the 16 electrical stimuli in the electrical train. It gives a measure of resting pre-synaptic activity (taken as total neuronal responsiveness upstream of the neurone under study, therefore including afferent excitability, activity at terminals and interneurones) and transmitter release in the absence of potentiation. The baseline ‘input’ response given numerically and graphically in this and other studies, was calculated as the number of C-fibre-evoked action potentials produced by the first stimulus (i.e. initial baseline response) multiplied by the total number of stimuli. Aβ-, Aδ-, and C-fibre responses denote the number of action potentials respectively generated in the spinal cord as a consequence of Aβ-, Aδ-, and C-fibre activity following electrical stimulation of their peripheral receptive field. Our Spike 2 Data Capturing software separates out which incoming action potentials are carried by which fibre according to their latency to arrive in the spinal cord following generation (given the different conduction velocities of the fibres). Thus, those arriving within 20 ms of peripheral stimulation are attributed to Aβ-fibres, Aδ-fibres=20-90 ms, and C-fibre-evoked responses were taken as those recorded 90-300 ms after electrical stimulation. Neuronal responses that trail behind between 300-800 ms post-stimulus are quantified as post-discharge, and represent spinal cord hyperexcitability that results as a consequence of repetitive stimulation of the neurone. Activity-dependent hyperexcitability can additionally be measured as wind-up. This value is calculated as the difference between the total number of action potentials at C-fibre latency produced by the train of 16 electrical stimuli, and ‘input’ as defined and calculated above. Therefore, if the first electrical stimulus elicited 15 C-fibre-evoked action potentials, and the total number of C-fibre-evoked action potentials recorded after 16 stimuli was 350, then wind up=350−([…])=200. If each post-synaptic response was independent of previous activity, then in the example above, the cumulative number of action potentials evoked by C-fibres after the 16 electrical stimuli should theoretically be […]. However, temporal summation of action potentials, and post-synaptic hyperexcitability amplify responses, so wind-up is a measure of the additional action potentials recorded above the predicted baseline level.

Experiment [3] relates to acetic acid (AA)-induced colonic hypersensitivity in a rodent model. Description: Colonic sensitivity assessment: visceromotor response to colorectal distension after acetic acid infusion. Particulars: rats; for inhibition of AA-induced colonic hypersensitivity, agent alone: oral, effective dose not given (0.001-1 mg/kg dosed); for effect of 0.001 mg/kg dose alone on colonic and somatic sensitivity: 0.001 mg/kg p.o., agent alone. On the procedure: Induction of Acute Visceral and Somatic Hypersensitivity: Visceral and somatic hypersensitivity were induced by infusing dilute (1.5 ml at 0.6%) acetic acid (AA) into the rat colon via a catheter (Intramedic PE 90 tubing) inserted via the anus to the level of the mid-colon. Within 60 mins colonic and somatic hypersensitivity was evident.
Colonic Sensitivity Assessment: Visceromotor responses (VMR) to colorectal distension (CRD) were measured by counting the number of abdominal contractions in response to increasing levels of CRD (0-60 mmHg). On the day of the colonic sensitivity assessment, a minor surgical procedure was performed to attach a strain gauge force transducer onto the abdominal oblique muscle and attached via an adapter cable to a Grass Model 7 Polygraph. The cable was connected to a Model 7P1 Low-Level DC Pre-Amp. The Pre-Amp was set at 0.02 mV/cm sensitivity and was connected to a Model 7DA DC Driver Amp with sensitivity set at […]. A 5 cm latex balloon was inserted into the distal colon. The balloon cannula was connected to a Distender Series IIR barostat (G & J Electronics Inc.) for controlled, isobaric inflation of the balloon and CRD using constant pressure (isobaric) tonic distensions were conducted at 0, 20, 40 and 60 mmHg. Each pressure was maintained for a period 10 min. during which time the number of abdominal muscle contractions were counted. A 10 min. recovery period was allowed between the each distension.
Test Compounds: Following surgery, rats were pre-dosed with Palonosetron (1-hr pre-dose), Netupitant (2-hr pre-dose) or methyl cellulose vehicle. Palonosetron and Netupitant were supplied by Helsinn Healthcare Inc. and were stored at 4° C. until prepared for dosing as a suspension in 1% methyl cellulose solution. The drug suspensions were prepared so that each rat received an oral dosing volume of 0.5 ml per 100 g body weight for doses of 0.001, 0.01, 0.1 or 1 mg/kg. Compounds were prepared fresh on the day of use.
Statistical Analysis: To determine statistical significance between multiple control and treatment groups, data was compared using one-way ANOVA followed by a Bonferroni post-test. Results were deemed significant when p-values were less than 0.05.

Turning to `Cc1ccccc1-c1cc(N2CCN(C)CC2)ncc1N(C)C(=O)C(C)(C)c1cc(C(F)(F)F)cc(C(F)(F)F)c1` [Netu, 2-[3,5-bis(trifluoromethyl)phenyl]-N,2-dimethyl-N-[4-(2-methylphenyl)-6-(4-methylpiperazin-1-yl)pyridin-3-yl]propanamide], in experiment [1], the “inhibition of AA-induced somatic hypersensitivity, agent alone” value was “significantly inhibited” and the “effect of 0.001 mg/kg dose alone on somatic hypersensitivity” value was “non-effective”. Besides, in experiment [2] (Netu 0.1 mg/kg s.c.), the “AB-Fiber Response, Number of Action Potentials” value turned out to be 135 ± 10; the “AD-Fiber Response, Number of Action Potentials” value amounted to 103 ± 13; the “C-Fiber Response, Number of Action Potentials” value came out at 292 ± 45; the “Input Response, Number of Action Potentials” value is reported as 293 ± 46. In addition, in experiment [2] (Netu 0.1 mg/kg s.c.), the “Post Discharge Response, Number of Action Potentials” value was 195 ± 29 and the “Wind-up Response, Number of Action Potentials” value was found to be 270 ± 38. Moreover, the “effect on electrophysiological measures of pain control, agent alone” value in experiment [2] was “independent effect”. Besides, in experiment [3], the “inhibition of AA-induced colonic hypersensitivity, agent alone” value is “significantly inhibited”; the “effect of 0.001 mg/kg dose alone on colonic and somatic sensitivity” value was “non-effective”.

With `Cl.O=C1c2cccc3c2[C@H](CCC3)CN1[C@@H]1CN2CCC1CC2` [Palo, (3aS)-2-[(S)-1-Azabicyclo[2.2.2]oct-3-yl]-2,3,3a,4,5,6-hexahydro-1-oxo-1Hberiz[de]isoquinoline], in experiment [1], the “inhibition of AA-induced somatic hypersensitivity, agent alone” value was “significantly inhibited” and the “effect of 0.001 mg/kg dose alone on somatic hypersensitivity” value is given as “non-effective”. In addition, in experiment [2] (Palo 0.03 mg/kg s.c.), the “AB-Fiber Response, Number of Action Potentials” value came to 141 ± 22; the “AD-Fiber Response, Number of Action Potentials” value was 192 ± 51; the “C-Fiber Response, Number of Action Potentials” value is given as 518 ± 103; the “Input Response, Number of Action Potentials” value is 461 ± 86. In experiment [2] (Palo 0.03 mg/kg s.c.), the “Post Discharge Response, Number of Action Potentials” value is recorded as 417 ± 127 and the “Wind-up Response, Number of Action Potentials” value was 559 ± 192. Besides, in experiment [2], the “effect on electrophysiological measures of pain control, agent alone” value is recorded as “zero or minimal effect”. In addition, in experiment [3], the “inhibition of AA-induced colonic hypersensitivity, agent alone” value is recorded as “significantly inhibited”; the “effect of 0.001 mg/kg dose alone on colonic and somatic sensitivity” value is listed as “non-effective”.
